Reference: patent US9884868B2, “TGF-beta inhibitors” (Rigel Pharmaceuticals, Inc., priority 2015, dated 2018)
Where a name gives a salt, the structure may show the parent alone.

Molecular target: HIS-TGF-βR1 T204D (Homo sapiens (Human), UniProt P36897, T204D)
Test: HTRF probe displacement assay with HIS-TGF-βR1 T204D
Conditions: read-out: TGFbr1 IC50; HTRF probe displacement, 1 nM HIS-TGF-βR1 T204D, 1 hour at room temperature

HIS-TGF-βR1 T204D, sequence (P36897 34-503 T204D): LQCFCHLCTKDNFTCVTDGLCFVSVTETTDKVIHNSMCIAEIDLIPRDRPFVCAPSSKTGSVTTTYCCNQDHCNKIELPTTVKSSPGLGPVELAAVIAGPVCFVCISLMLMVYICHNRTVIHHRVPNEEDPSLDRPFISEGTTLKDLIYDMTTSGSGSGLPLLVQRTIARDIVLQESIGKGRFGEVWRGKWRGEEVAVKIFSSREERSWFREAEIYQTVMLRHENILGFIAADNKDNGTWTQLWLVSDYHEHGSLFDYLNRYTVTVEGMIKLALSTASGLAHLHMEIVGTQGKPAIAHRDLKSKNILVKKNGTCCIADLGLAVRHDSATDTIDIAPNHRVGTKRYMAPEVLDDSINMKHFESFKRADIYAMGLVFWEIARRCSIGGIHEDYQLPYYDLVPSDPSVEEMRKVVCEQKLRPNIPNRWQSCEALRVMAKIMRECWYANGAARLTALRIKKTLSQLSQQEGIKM

SMILES | IC50 [nM]
N#Cc1cnc2ccc(-c3c(-c4cccc(CO)c4)ncn3CC(F)F)nn12 [256′, 6-(1-(2,2-difluoroethyl)-4-(3-(hydroxymethyl)phenyl)-1H-imidazol-5-yl)imidazo[1,2-b]pyridazine-3-carbonitrile] | 5
NC(=O)c1cnc2ccc(-c3c(-c4ccc(F)cc4)ncn3CCCO)cn12 [165′, 6-(4-(4-fluorophenyl)-1-(3-hydroxypropyl)-1H-imidazol-5-yl)imidazo[1,2-a]pyridine-3-carboxamide] | 4.9
CC(C)n1cnc(-c2ccc(F)c(Cl)c2)c1-c1ccc2ncc(C#N)n2n1 [51′, 6-(4-(3-chloro-4-fluorophenyl)-1-isopropyl-1H-imidazol-5-yl)imidazo[1,2-b]pyridazine-3-carbonitrile] | 0.6
N#Cc1cnc2ccc(-c3c(-c4ccc(F)c(Cl)c4)ncn3C3CCC3)nn12 [58′, 6-(4-(3-chloro-4-fluorophenyl)-1-cyclobutyl-1H-imidazol-5-yl)imidazo[1,2-b]pyridazine-3-carbonitrile] | 0.8
CC(C)CCn1cnc(-c2ccc(F)c(Cl)c2)c1-c1ccc2ncc(C(N)=O)n2n1 [148′, 6-(4-(3-chloro-4-fluorophenyl)-1-isopentyl-1H-imidazol-5-yl)imidazo[1,2-b]pyridazine-3-carboxamide] | 1.1
C[C@H](O)Cn1cnc(-c2ccc(F)cc2)c1-c1ccc2ncc(C#N)n2c1 [89′, (S)-6-(4-(4-fluorophenyl)-1-(2-hydroxypropyl)-1H-imidazol-5-yl)imidazo[1,2-a]pyridine-3-carbonitrile] | 127
N#Cc1cnc2ccc(-c3c(-c4ccccc4C(N)=O)ncn3CC(F)F)nn12 [251′, 2-(5-(3-cyanoimidazo[1,2-b]pyridazin-6-yl)-1-(2,2-difluoroethyl)-1H-imidazol-4-yl)benzamide] | 73.5
N#Cc1cnc2ccc(-c3c(-c4ccc(F)c(Cl)c4)ncn3CCO)nn12 [Example 32′, 6-(4-(3-chloro-4-fluorophenyl)-1-(2-hydroxyethyl)-1H-imidazol-5-yl)imidazo[1,2-b]pyridazine-3-carbonitrile] | 1.8
N#Cc1cnc2ccc(-c3c(-c4ccc(F)c(Cl)c4)ncn3C34CC(C3)C4)nn12 [59′, 6-(1-(bicyclo[1.1.1]pentan-1-yl)-4-(3-chloro-4-fluorophenyl)-1H-imidazol-5-yl)imidazo[1,2-b]pyridazine-3-carbonitrile] | 1.1
N#Cc1cnc2ccc(-c3c(-c4ccc(F)c(Cl)c4)ncn3C3CC(F)C3)nn12 (stereo not drawn) [Example 104′, 6-(4-(3-chloro-4-fluorophenyl)-1-(3-fluorocyclobutyl)-1H-imidazol-5-yl)imidazo[1,2-b]pyridazine-3-carbonitrile] | 0.5
NC(=O)c1cnc2ccc(-c3c(-c4ccc(F)cc4)ncn3C3CCCC3)cn12 [159′, 6-(1-cyclopentyl-4-(4-fluorophenyl)-1H-imidazol-5-yl)imidazo[1,2-a]pyridine-3-carboxamide] | 0.8
NC(=O)c1cnc2ccc(-c3c(-c4ccc(F)cc4)ncn3C34CC(C3)C4)nn12 [136′, 6-(1-(bicyclo[1.1.1]pentan-1-yl)-4-(4-fluorophenyl)-1H-imidazol-5-yl)imidazo[1,2-b]pyridazine-3-carboxamide] | 12.4
N#Cc1cnc2ccc(-c3c(-c4ccc(F)cc4)ncn3C(CO)CO)cn12 [85′, 6-(1-(1,3-dihydroxypropan-2-yl)-4-(4-fluorophenyl)-1H-imidazol-5-yl)imidazo[1,2-a]pyridine-3-carbonitrile] | 144
N#Cc1cnc2ccc(-c3[nH]cnc3-c3ccc(F)cc3)nn12 [18′, 6-(4-(4-fluorophenyl)-1H-imidazol-5-yl)imidazo[1,2-b]pyridazine-3-carbonitrile] | 10.5
Fc1cc(F)c(-c2ncn(CC(F)F)c2-c2ccc3nccn3c2)cc1Cl [223′, 6-(4-(5-chloro-2,4-difluorophenyl)-1-(2,2-difluoroethyl)-1H-imidazol-5-yl)imidazo[1,2-a]pyridine] | 2.2
CC(O)Cn1cnc(-c2ccc(F)cc2)c1-c1ccc2ncc(C(N)=O)n2c1 (stereo not drawn) [176′, 6-(4-(4-fluorophenyl)-1-(2-hydroxypropyl)-1H-imidazol-5-yl)imidazo[1,2-a]pyridine-3-carboxamide] | 5.2
N#Cc1cnc2ccc(-c3c(-c4ccc(F)cc4)ncn3CCCF)nn12 [21′, 6-(4-(4-fluorophenyl)-1-(3-fluoropropyl)-1H-imidazol-5-yl)imidazo[1,2-b]pyridazine-3-carbonitrile] | 1.9
N#Cc1cnc2ccc(-c3c(-c4ccc(O)cc4)ncn3CC(F)F)nn12 [250′, 6-(1-(2,2-difluoroethyl)-4-(4-hydroxyphenyl)-1H-imidazol-5-yl)imidazo[1,2-b]pyridazine-3-carbonitrile] | 136
NC(=O)c1cnc2ccc(-c3c(-c4ccc(F)c(Cl)c4)ncn3C3CCOC3)nn12 (stereo not drawn) [146′, 6-(4-(3-chloro-4-fluorophenyl)-1-(tetrahydrofuran-3-yl)-1H-imidazol-5-yl)imidazo[1,2-b]pyridazine-3-carboxamide] | 1.7
CC(C1CC1)n1cnc(-c2ccc(F)cc2)c1-c1ccc2ncc(C(N)=O)n2c1 (stereo not drawn) [167′, 6-(1-(1-cyclopropylethyl)-4-(4-fluorophenyl)-1H-imidazol-5-yl)imidazo[1,2-a]pyridine-3-carboxamide] | 0.6

SMILES | IC50 [nM]
CC(C)n1cnc(-c2ccc(F)cc2)c1-c1ccc2ncc(C#N)n2c1 [79′, 6-(4-(4-fluorophenyl)-1-isopropyl-1H-imidazol-5-yl)imidazo[1,2-a]pyridine-3-carbonitrile] | 55.3
Nc1nc(-c2ccc(F)cc2)c(-c2ccc3nccn3c2)n1CC(F)F [Example 296′, 1-(2,2-difluoroethyl)-4-(4-fluorophenyl)-5-(imidazo[1,2-a]pyridin-6-yl)-1H-imidazol-2-amine, 2 HCl] | 109
N#Cc1cnc2ccc(-c3c(-c4ccc(F)cc4)ncn3C3COC3)cn12 [78′, 6-(4-(4-fluorophenyl)-1-(oxetan-3-yl)-1H-imidazol-5-yl)imidazo[1,2-a]pyridine-3-carbonitrile] | 568
Fc1ccc(-c2ncn(CC(F)F)c2-c2ccc3nccn3c2)cc1Cl [219′, 6-(4-(3-chloro-4-fluorophenyl)-1-(2,2-difluoroethyl)-1H-imidazol-5-yl)imidazo[1,2-a]pyridine] | 9.9
CC(C)(O)CCn1cnc(-c2ccc(F)c(Cl)c2)c1-c1ccc2ncc(C#N)n2n1 [37′, 6-(4-(3-chloro-4-fluorophenyl)-1-(3-hydroxy-3-methylbutyl)-1H-imidazol-5-yl)imidazo[1,2-b]pyridazine-3-carbonitrile] | 2.5
Cc1nc(-c2ccc(F)cc2)c(-c2ccc3ncc(C(N)=O)n3c2)n1CC(F)F [Example 272′, 6-(1-(2,2-difluoroethyl)-4-(4-fluorophenyl)-2-methyl-1H-imidazol-5-yl)imidazo[1,2-a]pyridine-3-carboxamide] | 10.4
Fc1ccc(-c2ncn(CC(F)F)c2-c2ccn3ncnc3c2)cc1 [Example 282′, 7-(1-(2,2-difluoroethyl)-4-(4-fluorophenyl)-1H-imidazol-5-yl)-[1,2,4]triazolo[1,5-a]pyridine] | 12.9
NC(=O)c1cnc2ccc(-c3c(-c4cc(Cl)ccc4F)ncn3CC(F)F)cn12 [234′, 6-(4-(5-chloro-2-fluorophenyl)-1-(2,2-difluoroethyl)-1H-imidazol-5-yl)imidazo[1,2-a]pyridine-3-carboxamide] | 1.1
NC(=O)c1cnc2ccc(-c3c(-c4ccc(F)cc4)ncn3C3CCC3)cn12 [172′, 6-(1-cyclobutyl-4-(4-fluorophenyl)-1H-imidazol-5-yl)imidazo[1,2-a]pyridine-3-carboxamide] | 0.5
N#Cc1cnc2ccc(-c3c(-c4ccc(F)cc4)ncn3CC3CCC3)cn12 [72′, 6-(1-(cyclobutylmethyl)-4-(4-fluorophenyl)-1H-imidazol-5-yl)imidazo[1,2-a]pyridine-3-carbonitrile] | 67.8
CC(C)(O)c1cnc2ccc(-c3c(-c4ccc(F)cc4)ncn3CC(F)F)nn12 [Example 204′, 2-(6-(1-(2,2-difluoroethyl)-4-(4-fluorophenyl)-1H-imidazol-5-yl)imidazo[1,2-b]pyridazin-3-yl)propan-2-ol] | 1.2
CCOCCn1cnc(-c2ccc(F)cc2)c1-c1ccc2ncc(C#N)n2c1 [91′, 6-(1-(2-ethoxyethyl)-4-(4-fluorophenyl)-1H-imidazol-5-yl)imidazo[1,2-a]pyridine-3-carbonitrile] | 18.8
CCn1cnc(-c2ccc(F)c(Cl)c2)c1-c1ccc2ncc(C(N)=O)n2c1 [119′, 6-(4-(3-chloro-4-fluorophenyl)-1-ethyl-1H-imidazol-5-yl)imidazo[1,2-a]pyridine-3-carboxamide] | 0.4
Fc1ccc(-c2ncn(CC(F)F)c2-c2ccc3ncc(-c4cnco4)n3n2)cc1 [Example 216′, 5-(6-(1-(2,2-difluoroethyl)-4-(4-fluorophenyl)-1H-imidazol-5-yl)imidazo[1,2-b]pyridazin-3-yl)oxazole] | 0.9
Cn1cnc(-c2ccc(F)c(F)c2)c1-c1ccc2cn[nH]c2c1 [Compound 65, 6-(4-(3,4-Difluorophenyl)-1-methyl-1H-imidazol-5-yl)-1H-indazole] | 63.2
N#Cc1cnc2ccc(-c3c(-c4ccc(F)c(Cl)c4)ncn3[C@H]3C[C@@H](O)C3)nn12 [Example 39′, 6-(4-(3-chloro-4-fluorophenyl)-1-((cis)-3-hydroxycyclobutyl)-1H-imidazol-5-yl)imidazo[1,2-b]pyridazine-3-carbonitrile] | 0.9
NCc1cnc2ccc(-c3c(-c4ccc(F)cc4)ncn3CC(F)F)nn12 [196A′, (6-(1-(2,2-difluoroethyl)-4-(4-fluorophenyl)-1H-imidazol-5-yl)imidazo[1,2-b]pyridazin-3-yl)methanamine] | 20.1
CNCc1cnc2ccc(-c3c(-c4ccc(F)cc4)ncn3CC(F)F)nn12 [Example 196′] | 23.8
NC(=O)c1cnc2ccc(-c3c(-c4ccc(F)cc4)ncn3CC3CCC3)cn12 [157′, 6-(1-(cyclobutylmethyl)-4-(4-fluorophenyl)-1H-imidazol-5-yl)imidazo[1,2-a]pyridine-3-carboxamide] | 0.8
